Where “and” joins values, the source holds several entries; their conditions need not be identical. Equal entries are not always repeated. Where two headings read alike, the source gives them in different places.
Columns and labels:
leaf-discs [1] = assay: DMSO spray and dips, tolerance by leaf-discs
Excerpt: There was no surface sterilization pretreatment; (2) discs were placed on GB+GBV agar plates; (3) disc were sprayed using a Preval Atomizer with 20% DMSO or water (control); (4) some plates were allowed to dry overnight in the hood. […] Plates were covered with two fabric screens. […] Plates were covered with one fabric screen.
There was no surface sterilization pretreatment; (2) discs were dipped several times in 20% DMSO, 8% DMSO or water (control). Discs were allowed to dry for a short time in the hood. […] Plates were covered with two fabric screens. […] Plates were covered with one fabric screen.

eggplant leaf-discs = assay: Phytohormone treatment, root production from eggplant leaf-discs
Protocol: (§1) • 1. Leaf-discs (2.7-cm in diameter) were cut from Brassica leaves (Leaf #2, leaf #3) or eggplant leaves (see above). • 2. […] The discs were placed in Incubator B (higher humidity, higher light). Plates were covered with two fabric screens. • 4.

Brassica leaf-discs = assay: Phytohormone treatment, calli and root production from Brassica leaf-discs
Protocol: as §1

plant-derived fungi [2] = assay: Surface sterilization of leaves/leaf-discs with EtOH and sodium hypochlorite, control of fungi
Excerpt: Plates were covered with two fabric screens. […] Plates were covered with one fabric screen.

leaf-discs [3] = test system: leaf-discs
Protocol: Protocol 1: Ethanol and sodium hypochlorite: The method comprised the following steps: (1) whole leaves (Leaf 2 or leaf 3) were excised from plants; (2) leaves were dipped in 500 ml of 70% EtOH for 10-20 sec; (3) leaves were immersed in 500 ml of 0.01%, 0.06% or 0.24% NaClO for varying periods of time (1-20 min) with and without agitation of the liquid; (4) leaves were washed three to four times in distilled water (500-ml) each; (5) leaves were patted dry with paper towels; and (6) discs are cut from these pretreated leaves.
Protocol 2: Ethanol and sodium hypochlorite: The method comprised the following steps: (1) leaf-discs (2.5-cm in diameter) were cut from leaf 2 (11.5-cm long) or leaf 3 from a 6-wk-old plants; (2) Discs were dipped in 500 ml of 70% EtOH for 10-20 sec; (3) Discs were immersed in 500 ml of 0.01%, 0.06% or 0.24% NaClO for varying periods of time (1-20 min) with and without agitation of the liquid; (4) Discs were washed three to four times in distilled water (500-ml) each; (5) Discs were patted dry with paper towels; (6) Discs were placed on GB+GBV agar plates, covered with a mesh lid, sealed with parafilm, and incubated agar side up; (7) In some experiments, GB-GBV plates were initially incubated agar side down to encourage root growth into the media. […]

plant-derived fungi [4] = assay: DMSO/miconazole dips, control of fungi on leaf-discs; settings: dipping of leaf-discs in 8% DMSO and 5 μg/ml miconazole
Protocol: There was no surface sterilization pretreatment; (2) discs were dipped several times in 20% DMSO, 8% DMSO or water (control). Discs were allowed to dry for a short time in the hood. […] Plates were covered with two fabric screens. […] Plates were covered with one fabric screen. In most experiments both incubators were used; […].

C[S+](C)[O-] [DMSO, dimethyl sulfoxide] was tested, and the damage to leaf-discs (leaf-discs [1]; dipping into 8% DMSO) was “does not cause leaf-disc damage”, the damage to leaf-discs (leaf-discs [1]; dipping into 20% DMSO) was “does not cause leaf-disc damage” and the damage to leaf-discs (leaf-discs [1]; direct spraying with 20% DMSO, two types of atomizers) was “causes extensive damage”.
For O=C(O)Cc1cccc2ccccc12 [NAA, Napthalene Acetic Acid], the “production of roots from eggplant leaf-discs” value (eggplant leaf-discs; NAA 0.1, 1.0 and 10 mg/L, within 5 d) was “did not produce of roots”, the “Roots first detected” value (Brassica leaf-discs; 0.1 mg/L NAA) was 5 days and the “% plates with calli” value (Brassica leaf-discs; 1 mg/L NAA) was 67%. For the same compound, the roots per site (Brassica leaf-discs; 1 mg/L NAA, day 4) was 1-3 roots per site and 1 roots per site and 1-2 roots per site, the roots per site (Brassica leaf-discs; 1 mg/L NAA, day 5) was 1-3 roots per site and 1-2 roots per site and the “% plates with calli” value (Brassica leaf-discs; 10 mg/L NAA) was 100%. The “Calli first day detected” value (Brassica leaf-discs; 10 mg/L NAA in GB + GBV, Incubator B) was 3 days, the “number of root sites per disc” value (Brassica leaf-discs; 10 mg/L NAA, day 4, discs 142B-1 to -3) was 1 sites and the roots per site (Brassica leaf-discs; 10 mg/L NAA, day 5) was 2 per site and 1-3multiple per site and 1-3 per site. For the same compound, the plates with roots (Brassica leaf-discs; NAA 0.1 mg/L, day 5) was “⅔”, the plates with roots (Brassica leaf-discs; NAA 1 mg/L, by day 4) was “all three” and the plates with roots (Brassica leaf-discs; NAA 10 mg/L, by day 4) was “all three”. For the same compound, the “root sites and roots per site detected” value (Brassica leaf-discs; NAA 0.1, 1.0 and 10 mg/L) was “Multiple root sites and multiple roots per site” and the “effect on production of roots from Brassica leaf-discs” value (Brassica leaf-discs; NAA 0.1, 1.0 and 10 mg/L in GB+GBV) was “enhanced and accelerated the production of roots”.
With [Na+].[O-]Cl [NaClO, sodium hypochlorite] the “time for which appearance of fungi is prevented” value (plant-derived fungi [2]; prewashing intact leaves with 70% EtOH and 0.24% NaClO, then cutting discs) was 19 days, the “slowing of first appearance of fungi on agar plates” value (plant-derived fungi [2]; prewashing leaves or leaf-discs with 70% EtOH and 0.01% NaClO) was 1 to 2 days and the “slowing of first appearance of fungi on agar plates” value (plant-derived fungi [2]; prewashing with 70% EtOH and 0.06% NaClO) was 1 to 2 days. The “damage to intact leaves or leaf-discs” value (leaf-discs [3]) was “No damage was evident”.
With Clc1ccc(COC(Cn2ccnc2)c2ccc(Cl)cc2Cl)c(Cl)c1 (stereo not drawn) [miconazole] the “slowing of growth of plant-derived fungi” value (plant-derived fungi [4]) was 10 to 12 days.
For Indole butyric acid [IBA], the “discs that formed roots” value (eggplant leaf-discs) was “one”, the “time after which roots formed” value (eggplant leaf-discs) was 10 days and the “Calli first day detected” value (Brassica leaf-discs) was 4 days and 5 days. For the same compound, the “Roots first detected” value (Brassica leaf-discs) was 5 days, the “time in which leaf-discs produced roots” value (Brassica leaf-discs) was 5 to 6 days and the detection of roots (Brassica leaf-discs; 1.0 mg/L IBA) was “occasionally detected”. The “number of root sites per disc” value (Brassica leaf-discs; 2.5 mg/L IBA, day 5) was 1 site, the roots per site (Brassica leaf-discs; 2.5 mg/L IBA, day 5) was 1 root and the “% plates with calli” value (Brassica leaf-discs; 5 mg/L IBA) was 67% and 100%. For the same compound, the “Roots first detected” value (Brassica leaf-discs; 5 mg/L IBA) was 5 days, the “number of root sites per disc” value (Brassica leaf-discs; 5 mg/L IBA, day 5) was 2 sites and the roots per site (Brassica leaf-discs; 5 mg/L IBA, day 5) was 3-4 roots per site. For the same compound, the “% plates with calli” value (Brassica leaf-discs; 7.5 mg/L IBA) was 100%, the “Roots first detected” value (Brassica leaf-discs; 7.5 mg/L IBA) was 6 days and the “% plates with calli” value (Brassica leaf-discs; 10 mg/L IBA) was 100%. For the same compound, the “Roots first detected” value (Brassica leaf-discs; 10 mg/L IBA) was 5 days, the roots per site (Brassica leaf-discs; 10 mg/L IBA, day 5) was 1-4 roots per site and 1 root per site roots per site and the “number of root sites per disc” value (Brassica leaf-discs; 10 mg/L IBA, day 6) was 132B-2 10 sites and 132B-3 15 sites. For the same compound, the “roots total per disc” value (Brassica leaf-discs; 10 mg/L IBA, day 6, disc 132B-1) was > 6d 132B-1 over 41 roots total and the “% plates with calli” value (Brassica leaf-discs; […]) was 100%.
